Data published in patent publication US20100137398A1, “USE OF HDAC INHIBITORS FOR THE TREATMENT OF GASTROINTESTINAL CANCERS” (NOVARTIS AG, priority 2007, published 2010).

Assays:
[1] = tested on: Colo320 colon cancer cell line; experiment: Monolayer growth inhibition assay (MTT/MTS); format: cell-based
Description: (§1) The MTT is a colorimetric assay to determine the cell proliferation rate. The yellow tetrazolium MTT (3-(4, 5-dimethylthiazolyl-2)-2, 5-diphenyltetrazolium bromide) is reduced, by metabolically active cells, in part by the action of dehydrogenase enzymes, to generate reducing equivalents such as NADH and NADPH. The resulting intracellular purple formazan can be solubilized and quantified by spectrophotometric means. The signals produced is directly proportional to the cell numbers. Describing the MTT assay in detail, experiments were done using six-point or 9 point drug titrations in multi-well tissue culture dishes, with outer rows left empty. Cells were suspended in complete media at densities of between 10^3 and 10^4 cell/ml, respectively, and added per well. The appropriate medium (200 μl) was then added. Twenty-four hours later, 10 μl of MTS solution, were added to one plates to determine the activity at the time of compound addition (T0). This plate was incubated at 37° for 4 hours and the optical density was measured on a Molecular Devices Thermomax at 490 nm using the Softmax program. The T0 plate served as a reference for initial activity at the beginning of the experiment.
(§2) Compound addition began 24 hours after seeding, the same time as the T0 determination. Serial dilutions at 4-fold 2-fold, 1-fold, 0.5-fold, 0.25-fold and 0.125-fold of previously determined IC50 values of each compound were made in a 96-deep well plate with the highest concentrations on the edge of the plate. Each of the six dilutions were added in triplicate and complete medium was added to the empty outer rows, without cells. The compounds were added to the plates singly or in combination with Compound III (LBH589). The plates were incubated at 37° C. for 72 hours from seeding. The MTS solution was added (as for the T0 plate) and read four hours later. In order to analyze the data, the average value of media alone (background) was subtracted from each experimental well and the triplicate values were averaged for each compound dilution. The following formulas were used to calculate percent growth.
(§3) If X>T0, % Growth=100×(X−T0)/(GC−T0))
(§4) If X<T0, % Growth=100×(X−T0)/T0)
(§5) T0=average value of T0 minus background
(§6) GC=average value of untreated cells (in triplicate) minus background X=average value, of compound treated cells (in triplicate) minus background
(§7) IC50 the concentration of LBH589 required to inhibit cell growth by 50% and LD50s the concentration required to reduce cell number (kill cells) to 50% the original innoculum were determined. The “% Growth” was plotted against compound concentration and used to calculate IC50s and LD50s, employing the user-defined spline function in Microsoft Excel.
(§8) Colon cancer cell lines were treated with DMSO vehicle control or varying concentrations of LBH589 for 3 days. Cell proliferation was measured on the day of cell plating and on the third day post-treatment. IC50 and LD50 values were calculated as described above.

[2] = tested on: Colo205 colon cancer cell line; experiment: Monolayer growth inhibition assay (MTT/MTS); format: cell-based
Description: as §1, §2, §3, §4, §5, §6, §7, §8

[3] = tested on: HCC2998 colon cancer cell line; experiment: Monolayer growth inhibition assay (MTT/MTS); format: cell-based
Description: as §1, §2, §3, §4, §5, §6, §7, §8

[4] = tested on: HCT116 colon cancer cell line; experiment: Monolayer growth inhibition assay (MTT/MTS); format: cell-based
Description: as §1, §2, §3, §4, §5, §6, §7, §8

[5] = tested on: SW620 colon cancer cell line; experiment: Monolayer growth inhibition assay (MTT/MTS); format: cell-based
Description: as §1, §2, §3, §4, §5, §6, §7, §8

[6] = tested on: HT115 colon cancer cell line; experiment: Monolayer growth inhibition assay (MTT/MTS); format: cell-based
Description: as §1, §2, §3, §4, §5, §6, §7, §8

[7] = tested on: C170 colon cancer cell line; experiment: Monolayer growth inhibition assay (MTT/MTS); format: cell-based
Description: as §1, §2, §3, §4, §5, §6, §7, §8

[8] = tested on: HCT8 colon cancer cell line; experiment: Monolayer growth inhibition assay (MTT/MTS); format: cell-based
Description: as §1, §2, §3, §4, §5, §6, §7, §8

[9] = tested on: C2Bbe-1 colon cancer cell line; experiment: Monolayer growth inhibition assay (MTT/MTS); format: cell-based
Description: as §1, §2, §3, §4, §5, §6, §7, §8

[10] = tested on: DLD-1 colon cancer cell line; experiment: Monolayer growth inhibition assay (MTT/MTS); format: cell-based
Description: as §1, §2, §3, §4, §5, §6, §7, §8

[11] = tested on: SW480 colon cancer cell line; experiment: Monolayer growth inhibition assay (MTT/MTS); format: cell-based
Description: as §1, §2, §3, §4, §5, §6, §7, §8

[12] = tested on: RKO colon cancer cell line; experiment: Monolayer growth inhibition assay (MTT/MTS); format: cell-based
Description: as §1, §2, §3, §4, §5, §6, §7, §8

[13] = tested on: CL-11 colon cancer cell line; experiment: Monolayer growth inhibition assay (MTT/MTS); format: cell-based
Description: as §1, §2, §3, §4, §5, §6, §7, §8

[14] = tested on: Colo201 colon cancer cell line; experiment: Monolayer growth inhibition assay (MTT/MTS); format: cell-based
Description: as §1, §2, §3, §4, §5, §6, §7, §8

[15] = tested on: Colo205 colon cancer xenograft; experiment: Colo205 colon cancer xenograft model, tumor growth inhibition and delay; format: in vivo, Female athymic nude mice; conditions: LBH589 30 mg/kg iv Mon/Wed/Fri for 3 weeks, 5-FU 75 mg/kg ip once a week for 3 weeks, or both
Description: Female athymic nude mice-were implanted subcutaneously with Col6205 colon cancer cells. When tumors reached a medan tumor volume of 220 mm3, mice were randomized into groups of 10 mice. Mice were treated with LBH589 at 30 mg/kg intravenously on Monday, Wednesday, Friday per week for 3 weeks, 75 mg/kg of 5-Fluorouracil intraperitoneally once a week for 3 weeks, or combination of the two agents. For tumor growth inhibition (FIG. 2A), compound activity was measured as the percent change in tumor volume of treated animals over control animals (% T/C). The percentage of regression was determined as the percent change in the final tumor volume at the end of the study over the starting tumor volume. For tumor growth delay (FIG. 2B), compound activity was measured as the change in median calculated time to the study end point (TTE), which was predefined as tumor volume of 1000 mm^3.

## Cc1[nH]c2ccccc2c1CCNCc1ccc(/C=C/C(=O)NO)cc1 [LBH589, N-hydroxy-3-[4-[[[2-(2-methyl-1H-indol-3-yl)ethyl]-amino]methyl]phenyl]-2E-2-propenamide]
[1]; Colo320, 3 days, concentration reducing cell number to 50% of original inoculum
  LD50: 82.90 nM
[1]; Homo sapiens, COLO 320, 72 h, Colo320, 3 days treatment
  IC50: 6.5 nM
[2]; Colo205, 3 days, concentration reducing cell number to 50% of original inoculum
  LD50: 33.52 nM
[2]; Homo sapiens, COLO 205, 72 h, Colo205, 3 days treatment
  IC50: 14.7 nM
[3]; HCC2998, 3 days, concentration reducing cell number to 50% of original inoculum
  LD50: 154.87 nM
[3]; Homo sapiens, HCC 2998, 72 h, HCC2998, 3 days treatment
  IC50: 29.7 nM
[4]; HCT116, 3 days, concentration reducing cell number to 50% of original inoculum
  LD50: 51.72 nM
[4]; Homo sapiens, HCT-116, 72 h, HCT116, 3 days treatment
  IC50: 7.11 nM
[5]; Homo sapiens, SW-620, 72 h, SW620, 3 days treatment
  IC50: 0.79 nM
[5]; SW620, 3 days, concentration reducing cell number to 50% of original inoculum
  LD50: 1.70 nM
[6]; 72 h, HT115, 3 days treatment
  IC50: 3.49 nM
[6]; HT115, 3 days, concentration reducing cell number to 50% of original inoculum
  LD50: 31.02 nM
[7]; C170, 3 days, concentration reducing cell number to 50% of original inoculum
  LD50: 382.03 nM
[7]; Homo sapiens, 72 h, C170, 3 days treatment
  IC50: 62.3 nM
[8]; HCT8, 3 days, concentration reducing cell number to 50% of original inoculum
  LD50: 77.70 nM
[8]; Homo sapiens, HCT-8, 72 h, HCT8, 3 days treatment
  IC50: 4.94 nM
[9]; C2Bbe-1, 3 days, concentration reducing cell number to 50% of original inoculum
  LD50: 243.12 nM
[9]; Homo sapiens, C2BBe1, 72 h, C2Bbe-1, 3 days treatment
  IC50: 27.5 nM
[10]; DLD-1, 3 days, concentration reducing cell number to 50% of original inoculum
  LD50: 296.27 nM
[10]; Homo sapiens, 72 h, DLD-1, 3 days treatment
  IC50: 61.4 nM
[11]; Homo sapiens, 72 h, SW480, 3 days treatment
  IC50: 1.48 nM
[11]; SW480, 3 days, concentration reducing cell number to 50% of original inoculum
  LD50: 6.90 nM
[12]; 72 h, 3 days treatment
  IC50: 5.57 nM
[12]; 3 days, concentration reducing cell number to 50% of original inoculum
  LD50: 2346.13 nM
[13]; 72 h, CL-11, 3 days treatment
  IC50: 3.54 nM
[13]; CL-11, 3 days, concentration reducing cell number to 50% of original inoculum
  LD50: 25.92 nM
[14]; Colo201, 3 days, concentration reducing cell number to 50% of original inoculum
  LD50: 20.14 nM
[14]; Homo sapiens, COLO 201, 72 h, Colo201, 3 days treatment
  IC50: 15.1 nM
[15]
  tumor growth inhibition (TGI) and tumor growth delay (TGD): led to tumor growth inhibition (TGI) and tumor growth delay (TGD)
[15]; vehicle 39.5 days
  Median TTE (time to study end point, tumor volume of 1000 mm^3): 32.9 days
